Results from ChEMBL document CHEMBL1944561, “Discovery and SAR exploration of a novel series of imidazo[4,5-b]pyrazin-2-ones as potent and selective mTOR kinase inhibitors” (Bioorg Med Chem Lett, 2011).

How the values were obtained:
[1] = target: Angiopoietin-1 receptor (Homo sapiens) (UniProt Q02763); assay: Inhibition of Tie2 assessed as activity remaining at 10 uM
[2] = target: Proto-oncogene tyrosine-protein kinase Src (Homo sapiens) (UniProt P12931); assay: Inhibition of cSRC assessed as activity remaining at 10 uM
[3] = target: Serine/threonine-protein kinase pim-2 (Homo sapiens) (UniProt Q9P1W9); assay: Inhibition of Pim2 assessed as activity remaining at 10 uM
Chain of Serine/threonine-protein kinase pim-2 (Homo sapiens) (Q9P1W9 whole entry, looked up): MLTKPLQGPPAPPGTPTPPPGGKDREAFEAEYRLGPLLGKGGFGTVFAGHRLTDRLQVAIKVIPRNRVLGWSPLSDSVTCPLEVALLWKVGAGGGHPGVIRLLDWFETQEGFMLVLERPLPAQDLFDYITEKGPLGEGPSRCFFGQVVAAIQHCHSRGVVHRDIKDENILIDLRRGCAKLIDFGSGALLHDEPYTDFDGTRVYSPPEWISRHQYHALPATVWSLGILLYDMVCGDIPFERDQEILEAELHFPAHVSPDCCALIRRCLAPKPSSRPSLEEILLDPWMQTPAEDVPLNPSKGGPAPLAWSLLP

[4] = target: SRSF protein kinase 3 (Homo sapiens) (UniProt Q9UPE1); assay: Inhibition of MSSK1 assessed as activity remaining at 10 uM
[5] = Inhibition of CK2 assessed as activity remaining at 10 uM
[6] = target: Macrophage colony-stimulating factor 1 receptor (Homo sapiens) (UniProt P07333); assay: Inhibition of Fms assessed as activity remaining at 10 uM
[7] = target: Serine/threonine-protein kinase PAK 4 (Homo sapiens) (UniProt O96013); assay: Inhibition of PAK4 assessed as activity remaining at 10 uM
[8] = target: Protein kinase C alpha type (Homo sapiens) (UniProt P17252); assay: Inhibition of PKC-alpha assessed as activity remaining at 10 uM
[9] = target: Platelet-derived growth factor receptor alpha (Homo sapiens) (UniProt P16234); assay: Inhibition of PDGFRalpha assessed as activity remaining at 10 uM
Chain of Platelet-derived growth factor receptor alpha (Homo sapiens) (P16234 whole entry): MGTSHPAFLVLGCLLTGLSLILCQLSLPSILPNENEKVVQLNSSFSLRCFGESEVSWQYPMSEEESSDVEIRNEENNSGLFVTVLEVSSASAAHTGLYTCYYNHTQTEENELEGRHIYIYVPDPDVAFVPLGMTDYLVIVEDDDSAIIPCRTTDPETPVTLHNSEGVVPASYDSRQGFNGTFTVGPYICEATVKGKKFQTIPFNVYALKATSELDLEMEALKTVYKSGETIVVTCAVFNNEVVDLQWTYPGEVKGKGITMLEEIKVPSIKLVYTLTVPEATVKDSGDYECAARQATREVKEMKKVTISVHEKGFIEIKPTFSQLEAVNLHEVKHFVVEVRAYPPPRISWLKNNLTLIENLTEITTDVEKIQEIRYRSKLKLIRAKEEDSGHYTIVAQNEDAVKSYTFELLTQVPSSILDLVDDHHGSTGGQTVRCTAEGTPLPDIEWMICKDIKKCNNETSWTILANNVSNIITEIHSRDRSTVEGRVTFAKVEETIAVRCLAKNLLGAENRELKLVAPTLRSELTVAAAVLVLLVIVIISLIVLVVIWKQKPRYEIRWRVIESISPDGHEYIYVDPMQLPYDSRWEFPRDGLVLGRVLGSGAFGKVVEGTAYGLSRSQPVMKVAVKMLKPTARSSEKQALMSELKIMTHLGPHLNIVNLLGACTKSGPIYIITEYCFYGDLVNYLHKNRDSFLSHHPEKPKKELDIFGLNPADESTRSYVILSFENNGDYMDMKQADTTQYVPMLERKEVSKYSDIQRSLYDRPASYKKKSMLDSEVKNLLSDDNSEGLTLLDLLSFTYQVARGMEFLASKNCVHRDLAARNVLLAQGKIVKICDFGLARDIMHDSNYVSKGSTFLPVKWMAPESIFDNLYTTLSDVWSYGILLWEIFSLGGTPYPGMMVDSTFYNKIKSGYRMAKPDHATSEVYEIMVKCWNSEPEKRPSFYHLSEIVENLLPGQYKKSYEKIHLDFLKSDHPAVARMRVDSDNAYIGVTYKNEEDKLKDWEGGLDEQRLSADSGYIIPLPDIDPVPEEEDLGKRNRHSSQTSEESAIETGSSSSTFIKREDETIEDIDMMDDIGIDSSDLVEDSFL

[10] = target: Epidermal growth factor receptor (Homo sapiens) (UniProt P00533); assay: Inhibition of EGFR assessed as activity remaining at 10 uM
[11] = Inhibition of PKA assessed as activity remaining at 10 uM
[12] = target: Glycogen synthase kinase-3 alpha (Homo sapiens, UniProt P49840); assay: Inhibition of GSK3alpha assessed as activity remaining at 10 uM
Chain of Glycogen synthase kinase-3 alpha (P49840 2-483 limits assumed): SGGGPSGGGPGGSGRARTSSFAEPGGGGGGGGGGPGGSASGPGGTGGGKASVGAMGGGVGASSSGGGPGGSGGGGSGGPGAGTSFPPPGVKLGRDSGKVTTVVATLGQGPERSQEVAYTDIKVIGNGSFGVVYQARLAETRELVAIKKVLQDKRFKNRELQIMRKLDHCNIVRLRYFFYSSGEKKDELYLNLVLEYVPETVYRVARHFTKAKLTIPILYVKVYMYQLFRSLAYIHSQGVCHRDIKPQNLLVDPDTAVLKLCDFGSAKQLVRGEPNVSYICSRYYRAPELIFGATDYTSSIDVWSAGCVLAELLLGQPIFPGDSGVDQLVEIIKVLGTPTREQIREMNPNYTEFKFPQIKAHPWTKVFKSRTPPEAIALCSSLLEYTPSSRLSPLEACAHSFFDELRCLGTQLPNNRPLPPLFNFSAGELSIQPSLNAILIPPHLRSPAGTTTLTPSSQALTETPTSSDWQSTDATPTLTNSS

[13] = target: Rho-associated protein kinase 1 (Homo sapiens) (UniProt Q13464); assay: Inhibition of ROCK1 assessed as activity remaining at 10 uM
Chain of Rho-associated protein kinase 1 (Homo sapiens) (Q13464 2-1354 limits assumed): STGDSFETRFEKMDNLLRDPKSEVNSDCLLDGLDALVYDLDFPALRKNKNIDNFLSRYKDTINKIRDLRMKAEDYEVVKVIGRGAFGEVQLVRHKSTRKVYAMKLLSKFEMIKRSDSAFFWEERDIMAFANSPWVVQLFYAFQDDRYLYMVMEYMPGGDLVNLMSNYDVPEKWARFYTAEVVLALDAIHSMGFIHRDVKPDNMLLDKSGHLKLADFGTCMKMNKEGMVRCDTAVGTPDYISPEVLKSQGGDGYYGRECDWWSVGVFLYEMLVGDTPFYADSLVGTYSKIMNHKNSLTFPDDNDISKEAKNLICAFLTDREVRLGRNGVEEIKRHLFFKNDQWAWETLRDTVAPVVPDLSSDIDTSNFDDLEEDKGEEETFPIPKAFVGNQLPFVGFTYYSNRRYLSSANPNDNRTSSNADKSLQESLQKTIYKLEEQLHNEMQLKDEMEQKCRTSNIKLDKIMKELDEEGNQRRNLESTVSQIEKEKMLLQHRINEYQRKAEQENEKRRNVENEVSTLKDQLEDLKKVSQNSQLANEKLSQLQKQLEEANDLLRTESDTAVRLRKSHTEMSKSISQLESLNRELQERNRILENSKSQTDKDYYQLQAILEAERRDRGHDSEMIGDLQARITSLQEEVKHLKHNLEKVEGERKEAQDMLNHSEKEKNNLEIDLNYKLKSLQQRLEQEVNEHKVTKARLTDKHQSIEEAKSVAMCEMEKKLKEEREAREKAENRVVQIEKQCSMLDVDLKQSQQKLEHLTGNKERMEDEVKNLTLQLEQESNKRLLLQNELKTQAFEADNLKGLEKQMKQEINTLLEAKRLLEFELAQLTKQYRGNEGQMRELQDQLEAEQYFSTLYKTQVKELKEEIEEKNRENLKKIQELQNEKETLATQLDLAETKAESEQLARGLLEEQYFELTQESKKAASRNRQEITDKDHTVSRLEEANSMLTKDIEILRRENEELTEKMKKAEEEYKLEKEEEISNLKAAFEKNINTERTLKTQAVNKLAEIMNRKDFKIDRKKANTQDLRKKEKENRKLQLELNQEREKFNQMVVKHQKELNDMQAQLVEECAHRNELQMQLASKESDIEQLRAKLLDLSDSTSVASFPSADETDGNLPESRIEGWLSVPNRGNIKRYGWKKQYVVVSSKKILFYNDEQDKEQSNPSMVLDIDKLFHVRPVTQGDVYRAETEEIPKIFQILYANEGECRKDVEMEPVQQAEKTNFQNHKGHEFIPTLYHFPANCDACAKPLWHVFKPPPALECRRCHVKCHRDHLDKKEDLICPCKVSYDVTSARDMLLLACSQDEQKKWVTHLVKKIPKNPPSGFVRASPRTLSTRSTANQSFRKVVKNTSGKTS

[14] = target: Mast/stem cell growth factor receptor Kit (Homo sapiens) (UniProt P10721); assay: Inhibition of cKit assessed as activity remaining at 10 uM
[15] = target: Tyrosine-protein kinase Yes (Homo sapiens) (UniProt P07947); assay: Inhibition of Yes assessed as activity remaining at 10 uM
[16] = target: Protein kinase C theta type (Homo sapiens) (UniProt Q04759); assay: Inhibition of PKC-theta assessed as activity remaining at 10 uM
[17] = target: T1, Serine/threonine-protein kinase mTOR (Homo sapiens, UniProt P42345); assay: Inhibition of mTOR-mediated S6 phosphorylation in human PC3 cells; type: cell-based, PC-3
[18] = target: Tyrosine-protein kinase ABL1 (Homo sapiens) (UniProt P00519); assay: Inhibition of Abl assessed as activity remaining at 10 uM
Chain of Tyrosine-protein kinase ABL1 (Homo sapiens) (P00519 whole entry): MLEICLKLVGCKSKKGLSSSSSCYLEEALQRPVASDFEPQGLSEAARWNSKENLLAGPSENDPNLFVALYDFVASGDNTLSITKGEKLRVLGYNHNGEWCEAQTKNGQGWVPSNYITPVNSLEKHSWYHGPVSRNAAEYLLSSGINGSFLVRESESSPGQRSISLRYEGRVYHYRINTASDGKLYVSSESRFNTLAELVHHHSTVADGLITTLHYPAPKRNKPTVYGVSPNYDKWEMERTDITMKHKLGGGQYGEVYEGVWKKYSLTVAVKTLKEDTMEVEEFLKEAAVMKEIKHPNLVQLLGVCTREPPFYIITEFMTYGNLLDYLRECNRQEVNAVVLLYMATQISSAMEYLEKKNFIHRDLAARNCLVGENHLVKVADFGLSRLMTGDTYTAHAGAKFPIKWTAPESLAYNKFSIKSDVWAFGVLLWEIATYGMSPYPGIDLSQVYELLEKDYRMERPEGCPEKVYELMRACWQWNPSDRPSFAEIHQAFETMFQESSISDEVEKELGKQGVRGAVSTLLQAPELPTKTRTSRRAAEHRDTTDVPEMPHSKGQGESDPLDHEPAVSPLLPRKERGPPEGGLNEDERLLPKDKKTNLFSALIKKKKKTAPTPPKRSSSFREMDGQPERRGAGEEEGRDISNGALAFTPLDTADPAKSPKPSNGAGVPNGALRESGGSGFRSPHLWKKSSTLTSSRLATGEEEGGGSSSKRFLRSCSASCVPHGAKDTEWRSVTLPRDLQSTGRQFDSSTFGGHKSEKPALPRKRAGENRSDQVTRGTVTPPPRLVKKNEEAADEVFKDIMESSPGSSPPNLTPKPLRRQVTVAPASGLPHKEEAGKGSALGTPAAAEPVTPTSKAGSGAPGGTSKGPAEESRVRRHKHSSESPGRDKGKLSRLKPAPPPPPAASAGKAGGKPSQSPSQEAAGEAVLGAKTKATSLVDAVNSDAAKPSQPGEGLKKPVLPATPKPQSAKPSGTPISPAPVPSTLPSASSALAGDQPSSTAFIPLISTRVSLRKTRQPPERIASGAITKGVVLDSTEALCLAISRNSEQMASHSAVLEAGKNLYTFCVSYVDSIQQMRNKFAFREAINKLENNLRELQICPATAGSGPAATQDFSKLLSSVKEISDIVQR

PC-3 = assay: Antiproliferative activity against human PC3 cells
[19] = target: Tyrosine-protein kinase BTK (Homo sapiens) (UniProt Q06187); assay: Inhibition of BTK assessed as activity remaining at 10 uM
Chain of Tyrosine-protein kinase BTK (Homo sapiens) (Q06187 whole entry): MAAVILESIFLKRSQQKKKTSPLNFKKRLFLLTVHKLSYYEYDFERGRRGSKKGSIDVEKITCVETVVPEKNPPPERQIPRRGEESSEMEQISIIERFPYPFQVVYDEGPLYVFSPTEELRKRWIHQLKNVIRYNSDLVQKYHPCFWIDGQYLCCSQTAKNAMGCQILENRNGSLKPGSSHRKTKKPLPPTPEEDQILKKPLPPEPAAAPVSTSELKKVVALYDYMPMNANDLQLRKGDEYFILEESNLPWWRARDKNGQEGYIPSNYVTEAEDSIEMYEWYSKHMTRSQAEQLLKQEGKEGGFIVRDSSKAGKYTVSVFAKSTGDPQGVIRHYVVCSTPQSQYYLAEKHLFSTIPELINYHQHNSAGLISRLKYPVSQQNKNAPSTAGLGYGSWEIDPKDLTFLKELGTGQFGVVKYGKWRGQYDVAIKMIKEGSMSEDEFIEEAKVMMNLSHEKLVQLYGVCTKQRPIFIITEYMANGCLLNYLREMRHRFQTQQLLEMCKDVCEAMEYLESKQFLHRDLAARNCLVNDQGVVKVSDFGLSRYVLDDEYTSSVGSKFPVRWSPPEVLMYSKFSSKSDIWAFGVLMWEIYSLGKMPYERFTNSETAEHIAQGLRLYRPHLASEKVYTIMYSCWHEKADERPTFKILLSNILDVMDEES

[20] = target: Mitogen-activated protein kinase kinase kinase 9 (Homo sapiens) (UniProt P80192); assay: Inhibition of MLK1 assessed as activity remaining at 10 uM
[21] = target: T2, Inhibitor of nuclear factor kappa-B kinase subunit beta (Homo sapiens) (UniProt O14920); assay: Inhibition of IKK-beta assessed as activity remaining at 10 uM
T2 sequence (whole entry): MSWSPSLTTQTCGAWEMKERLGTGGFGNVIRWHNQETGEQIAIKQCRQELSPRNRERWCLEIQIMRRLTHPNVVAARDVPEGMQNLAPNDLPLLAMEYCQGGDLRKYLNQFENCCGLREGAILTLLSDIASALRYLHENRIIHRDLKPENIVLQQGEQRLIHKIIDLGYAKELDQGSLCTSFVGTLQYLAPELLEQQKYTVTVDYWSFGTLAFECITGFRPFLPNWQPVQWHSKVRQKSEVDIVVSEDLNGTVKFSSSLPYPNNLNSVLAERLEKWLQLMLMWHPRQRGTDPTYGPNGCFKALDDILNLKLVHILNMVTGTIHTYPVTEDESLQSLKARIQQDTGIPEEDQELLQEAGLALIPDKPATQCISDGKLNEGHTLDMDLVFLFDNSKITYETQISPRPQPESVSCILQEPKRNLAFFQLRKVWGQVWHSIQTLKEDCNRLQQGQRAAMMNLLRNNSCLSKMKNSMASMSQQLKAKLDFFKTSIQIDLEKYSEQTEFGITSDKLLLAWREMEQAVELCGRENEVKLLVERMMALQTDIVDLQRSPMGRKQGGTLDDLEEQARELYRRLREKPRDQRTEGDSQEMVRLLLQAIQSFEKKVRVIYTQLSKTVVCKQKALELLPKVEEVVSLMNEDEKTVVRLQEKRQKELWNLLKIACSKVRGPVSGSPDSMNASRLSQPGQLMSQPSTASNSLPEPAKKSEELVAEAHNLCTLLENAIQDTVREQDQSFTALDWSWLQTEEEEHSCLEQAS

[22] = target: T1, Serine/threonine-protein kinase mTOR; assay: Inhibition of mTOR-mediated Akt phosphorylation in human PC3 cells; type: cell-based, PC-3
[23] = target: T3, Serine/threonine-protein kinase Sgk1 (Homo sapiens) (UniProt O00141); assay: Inhibition of SGK assessed as activity remaining at 10 uM
T3 sequence (whole entry): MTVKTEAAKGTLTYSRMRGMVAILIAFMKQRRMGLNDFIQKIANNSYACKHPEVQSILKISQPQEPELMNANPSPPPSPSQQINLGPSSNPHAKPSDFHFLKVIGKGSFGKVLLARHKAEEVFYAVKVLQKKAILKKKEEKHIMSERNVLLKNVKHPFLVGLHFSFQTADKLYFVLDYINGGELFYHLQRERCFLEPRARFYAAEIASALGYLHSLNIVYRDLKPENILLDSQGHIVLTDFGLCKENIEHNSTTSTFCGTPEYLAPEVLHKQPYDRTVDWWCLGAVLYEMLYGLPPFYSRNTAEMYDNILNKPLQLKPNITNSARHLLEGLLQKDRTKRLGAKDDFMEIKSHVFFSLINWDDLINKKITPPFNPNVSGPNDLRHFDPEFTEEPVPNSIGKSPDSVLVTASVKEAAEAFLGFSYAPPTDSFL

[24] = target: Homeodomain-interacting protein kinase 1 (Homo sapiens) (UniProt Q86Z02); assay: Inhibition of HIPK1 assessed as activity remaining at 10 uM

Activity [1]	Activity [2]	Activity [3]	Activity [4]	Activity [5]	Activity [6]	Activity [7]	Activity [8]	Activity [9]	Activity [10]	Activity [11]	Activity [12]	Activity [13]	Activity [14]	Activity [15]	Activity [16]	IC50 [17]	Activity [18]	IC50 (PC-3)	Activity [19]	SMILES	also measured
86%	92%	93%	93%	99%	37%	87%	86%	94%	88%	95%	39%	96%	95%	87%	82%	273 nM	83%	1370 nM	90%	O=c1[nH]c2ncc(-c3ccc(-c4nc[nH]n4)cc3)nc2n1CC1CCOCC1	Activity [20]: 86%; Activity [21]: 98%; IC50 [22]: 150 nM; Activity [23]: 97%; Activity [24]: 91%
85%	73%	91%	89%	95%	26%	87%	83%	93%	98%	95%	16%	97%	83%	74%	80%	1350 nM	53%	1380 nM	84%	CC(C)(O)c1ccc(-c2cnc3[nH]c(=O)n(CC4CCCCC4)c3n2)cc1	Activity [20]: 80%; Activity [21]: 91%; IC50 [22]: 322 nM; Activity [23]: 96%; Activity [24]: 94%
83%	63%	101%	91%	73%	23%	81%	82%	85%	87%	90%	3%	96%	94%	73%	73%	427 nM	23%	1160 nM	88%	O=c1[nH]c2ncc(-c3ccc4[nH]cnc4c3)nc2n1CC1CCCCC1	Activity [20]: 49%; Activity [21]: 82%; IC50 [22]: 137 nM; Activity [23]: 53%; Activity [24]: 84%
